Like-named read-outs stand apart in the source and are kept apart here.
Assays:
[1] = target: T1, C3b (Homo sapiens, UniProt P01024); test: SPR analysis of binding kinetics to immobilized C3b; details: SPR, Table 2-1
T1 construct: biotin (chemical biotinylation of C3b)
Description: (§1) The kinetics of the interaction between C3b and each compstatin analog was analyzed by SPR on a Biacore 3000 instrument (GE Healthcare Corp., Piscataway, N.J.) at 25° C. using PBS-T (10 mM sodium phosphate, 150 mM NaCl, 0.005% Tween-20, pH 7.4) as the running buffer, as described above. In brief, biotinylated C3b (30 μg/mL) was immobilized on a streptavidin-coated sensor chip, and a two-fold serial dilution series (1 μM-500 pM) of each analog was injected for 2 min at 30 μl/min, with a dissociation phase of 5-10 min. Peptide [Trp(Me)^4]-Ac-compstatin was included in each experimental series as an internal control and reference. Data analysis was performed using Scrubber (BioLogic Software, Campbell, Australia). The signals from an untreated flow cell and an ensemble of buffer blank injections were subtracted to correct for buffer effects and injection artifacts. Processed biosensor data were globally fitted to a 1:1 Langmuir binding model, and the equilibrium dissociation constant (KD) was calculated from the equation KD=kd/ka. Peptide solutions were injected in duplicate in every experiment, and each screening assay was performed at least twice.
as §1, with “in Example 1.” for “above.”, “μg/ml)” for “μg/mL)”, “Peptide [Trp(Me)^4]-Ac-compstatin was included in each experimental series as an internal control and reference.” left out

[2] = In vivo retention: plasma half-life in baboons by LC-MS/MS; design: species or system baboon (P. Anubis); details: for half-life: baboon (P. Anubis)
Description: A 96-well plate HLB Oasis 10 mg (Waters, Milford, Mass.) was employed for extraction. The SPE material was conditioned by addition of 500 μl of methanol followed by addition of 500 μL of milli-Q water. Sample was prepared by addition of the internal standard followed by 1:1 dilution with 4% H3PO4. After loading the sample, washing was carried out with 500 μL of 5% methanol in 0.1% formic acid. Sample was eluted with 150 μL of 65% methanol in 0.1% formic acid and collected in the collection plate. Solvent was evaporated to dryness in a speed-vac concentrator and reconstituted in 5% acetonitrile in 0.1% formic acid. Samples were kept at −20° C. until analysis.
Baboon plasma samples, 40 μL, were mixed with internal standard and dissolved 1:1 with 40 mM ammonium carbonate buffer. Rapigest detergent was added to a final concentration of 0.1%. Disulfide bridges were reduced in 5 mM DTT for 30 min at 60° C. Alkylation of cysteines was done by addition of iodoacetamide to a final concentration of 15 mM and incubation for 30 min in dark. The sample was enzymatically digested by addition of 16 μL of a 1 μG/μL trypsin solution and incubation overnight at 37° C. After that, the sample pH was lowered with 5% TFA to induce detergent degradation. To avoid nonspecific adsorption of very hydrophobic peptides, acetonitrile was added to 20%. The samples were centrifuged at 6° C. and 14000 rpm for 30 min and the supernatant was diluted with 0.1% formic acid to reduce acetonitrile concentration to 10% prior to filtration with a 10 kDa cut-off microcon centrifugal filter (Millipore, Billerica, Mass.). The filter was washed with 50 μL of 10% ACN in 0.1% formic acid and the collected sample was evaporated to dryness and reconstituted with 10% ACN in 0.1% formic acid.
LC-MS/MS analysis was performed on a SYNAPT HDMS (Waters, Milford, Mass.) controlled by MassLynx 4.1 software (Waters) and equipped with a nanoESI source. Each sample was injected in triplicate. A nanoACQUITY UPLC (Waters) system was used for peptide separation by reversed-phase liquid chromatography. After injection, analytes were trapped for 3 min with 3% mobile phase A (0.1% formic acid in water) at 5 μl/min on a 5 μm Symmetry C18 column (180 μm×20 mm, Waters) and further separated on a 1.7 μm BEH130 C18 column (75 μm×150 mm, Waters). The analytical column temperature was held at 35° C. Peptides were separated at flow rate 0.3 μl/min. The gradient was linear 3-40% B (0.1% formic acid in acetonitrile), either 50 min long, or 60 min for the digested samples. The capillary voltage was 3.2 kV, the cone voltage was 35 V and the source temperature was 100° C. [Glu1]-fibrinogen peptide was used for lock-mass correction with a sampling rate of 30 s. Mass spectra were acquired in positive mode over an m/z range 400-2000 Da at scan rate 0.6 s. The time window used for the MS/MS function was ±3 min of the retention time of the selected peptide. The presence of the analyte was confirmed by MS/MS. Selectivity was studied by analysis of blank samples to determine the presence of any interference coeluting with the analyte.
Juvenile baboons (P. Anubis, Baboon Research Resources, University of Oklahoma) weighing 5-8 kg were used. Three baboons were used for the study; one for each compound. All animals received a bolus dose of peptides (10 mg) by injection through the peripheral vein. […]

[3] = system: classical pathway of complement; test: Inhibition of classical pathway complement activation, ELISA in human serum; assay type: biochemical; details: relative to peptide 1; NA: not active
Description: The ability of the compstatin analogs to inhibit the activation of the classical pathway of complement was assessed by ELISA (Mallik et al., 2005, J Med Chem 48:274-86). In brief, complement was activated in human serum using an antigen-antibody complex in the presence or absence of compstatin analogs, and the deposition of C3 fragments on the plate surface was detected using an HRP-conjugated polyclonal anti-C3 antibody. […] The percent inhibition was plotted against the peptide concentration, and the resulting data set was fitted to the logistic dose-response function using Origin 7.0 software. IC50 values were obtained from the fitted parameters that produced the lowest χ^2 value. Each analog was assayed at least three to seven times.
The ability of the compstatin analogs to inhibit the activation of the classical pathway of complement was assessed by ELISA as described in Example 1. Each conjugate was assayed at least three times.

[4] = system: classical pathway of complement; details: data from Sahu et al., 1996; cited from earlier work

T1 sequence (P01024 23-667 limits assumed): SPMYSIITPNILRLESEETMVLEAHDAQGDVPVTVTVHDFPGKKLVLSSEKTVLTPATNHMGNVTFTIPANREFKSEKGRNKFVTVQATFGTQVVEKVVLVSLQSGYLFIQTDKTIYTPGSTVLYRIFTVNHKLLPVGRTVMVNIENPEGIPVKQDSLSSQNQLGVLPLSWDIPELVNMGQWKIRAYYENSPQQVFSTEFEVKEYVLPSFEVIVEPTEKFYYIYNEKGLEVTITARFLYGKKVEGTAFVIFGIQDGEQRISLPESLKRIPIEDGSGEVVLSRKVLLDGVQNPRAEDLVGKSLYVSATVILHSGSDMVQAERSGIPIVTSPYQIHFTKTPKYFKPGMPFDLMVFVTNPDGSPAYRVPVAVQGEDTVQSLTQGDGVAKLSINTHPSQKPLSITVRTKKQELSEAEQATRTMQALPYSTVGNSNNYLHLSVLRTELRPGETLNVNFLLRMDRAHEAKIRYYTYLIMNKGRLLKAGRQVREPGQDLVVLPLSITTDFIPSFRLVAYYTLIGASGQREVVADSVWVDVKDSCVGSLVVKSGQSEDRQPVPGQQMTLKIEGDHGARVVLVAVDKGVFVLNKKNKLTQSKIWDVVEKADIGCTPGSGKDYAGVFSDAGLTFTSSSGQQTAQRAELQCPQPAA
T1 sequence (P01024 749-1663 limits assumed): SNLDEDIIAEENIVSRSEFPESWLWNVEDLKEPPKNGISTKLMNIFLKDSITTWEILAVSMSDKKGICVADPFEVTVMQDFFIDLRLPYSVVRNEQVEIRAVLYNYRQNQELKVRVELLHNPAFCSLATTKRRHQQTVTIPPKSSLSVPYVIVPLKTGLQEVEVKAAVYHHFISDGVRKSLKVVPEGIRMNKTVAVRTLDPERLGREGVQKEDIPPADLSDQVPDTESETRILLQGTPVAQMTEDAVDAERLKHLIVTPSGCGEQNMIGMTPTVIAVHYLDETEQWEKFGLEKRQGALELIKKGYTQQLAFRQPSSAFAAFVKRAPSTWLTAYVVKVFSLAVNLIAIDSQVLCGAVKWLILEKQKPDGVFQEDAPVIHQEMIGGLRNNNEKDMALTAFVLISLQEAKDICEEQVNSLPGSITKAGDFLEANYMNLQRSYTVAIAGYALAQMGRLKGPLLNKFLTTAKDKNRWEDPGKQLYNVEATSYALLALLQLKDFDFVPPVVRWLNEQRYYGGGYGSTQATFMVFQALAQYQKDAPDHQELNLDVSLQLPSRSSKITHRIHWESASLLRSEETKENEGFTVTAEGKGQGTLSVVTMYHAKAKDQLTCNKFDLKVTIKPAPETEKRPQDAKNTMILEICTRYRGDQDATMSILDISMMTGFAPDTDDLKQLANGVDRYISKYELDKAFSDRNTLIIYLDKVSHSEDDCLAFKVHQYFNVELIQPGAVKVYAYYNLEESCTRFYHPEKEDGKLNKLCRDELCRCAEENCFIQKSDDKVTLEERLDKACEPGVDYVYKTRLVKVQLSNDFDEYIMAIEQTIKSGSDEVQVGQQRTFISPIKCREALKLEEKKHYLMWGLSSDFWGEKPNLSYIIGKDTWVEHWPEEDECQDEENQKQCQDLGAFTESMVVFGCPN

| Kd [1] | Koff [1] | Kon [1] | Compound | half-life ([2]; in vivo, iv, 10 mg) | fold improvement of half-life ([2]; in vivo) | half-life ([2]; in vivo, baboon, intravenous bolus 10 mg, read-out: plasma half-life (converted)) | fold improvement of half-life ([2]; relative to unconjugated peptide 17, baboon) | IC50-fold change [3] | IC50 [4] |
| --- | --- | --- | --- | --- | --- | --- | --- | --- | --- |
| 4.7 nM | 5.6 10^−3, s^−1 | 1.2 10^6, M^−1 · s^−1 | CC[C@H](C)[C@H](NC(C)=O)C(=O)N[C@H]1CSSC[C@@H](C(=O)N[C@H](C(=O)NCCOCCOCCOCC(=O)NCCOCCOCCOCC(=O)N[C@@H](CCCCNC(=O)CCNS(=O)(=O)c2ccc3ccccc3c2)C(N)=O)[C@@H](C)CC)NC(=O)[C@H](CCCNC(=N)N)NC(=O)[C@H](Cc2c[nH]cn2)NC(=O)[C@H](C)NC(=O)CN(C)C(=O)[C@H](Cc2c[nH]c3ccccc23)NC(=O)[C@H](CC(=O)O)NC(=O)[C@H](CCC(N)=O)NC(=O)[C@H](Cc2cn(C)c3ccccc23)NC(=O)[C@H](C(C)C)NC1=O [Peptide 17-ABM] | 5 h | 5 fold |  |  |  |  |
| 32 nM | 3.6 10^−3, s^−1 | 0.1 10^6, M^−1 · s^−1 | CC[C@H](C)[C@H](NC(C)=O)C(=O)N[C@H]1CSSC[C@@H](C(=O)N[C@H](C(=O)NCCOCCOCCOCC(=O)NCCOCCOCCOCC(=O)N[C@@H](CCCCNC(=O)Cn2cc(C(=O)N[C@@H](CCCNC(=N)N)C(=O)N[C@@H](CC(C)C)C(=O)N[C@H](C(=O)N[C@@H](CCC(=O)O)C(=O)N[C@@H](CC(=O)O)C(=O)N[C@H](C(=O)N[C@H]3CSSC[C@@H](C(=O)N[C@@H](CC(C)C)C(=O)N[C@@H](Cc4c[nH]c5ccccc45)C(=O)N[C@@H](CCC(=O)O)C(=O)N[C@@H](CC(=O)O)C(=O)N[C@@H](CC(=O)O)C(N)=O)NC(=O)CNC(=O)[C@H](Cc4c[nH]c5ccccc45)NC(=O)[C@H](CCCNC(=N)N)NC(=O)[C@@H]4CCCN4C(=O)[C@H](CC(C)C)NC3=O)[C@@H](C)CC)[C@@H](C)CC)nn2)C(N)=O)[C@@H](C)CC)NC(=O)[C@H](CCCNC(=N)N)NC(=O)[C@H](Cc2c[nH]cn2)NC(=O)[C@H](C)NC(=O)CN(C)C(=O)[C@H](Cc2c[nH]c3ccccc23)NC(=O)[C@H](CC(=O)O)NC(=O)[C@H](CCC(N)=O)NC(=O)[C@H](Cc2cn(C)c3ccccc23)NC(=O)[C@H](C(C)C)NC1=O [Peptide 17-ABP] |  |  | 21 h | 21 fold |  |  |
|  |  |  | Ac-I[CVYQDWGAHRC]T-NH2 [Peptide 1, reference compound] |  |  |  |  | 1 | 2400 nM |

— patent US9371365B2, “Modified compstatin with peptide backbone and C-terminal modifications” (The Trustees of the University of Pennsylvania, priority 2009, dated 2016)
